Assays:
human factor XIa [1] = biological target: T1, human factor XIa (Homo sapiens, UniProt P03951); assay type: biochemical; settings: 50 mM Tris-HCl pH 7.4, 37 °C; for enhancement of fXIa catalysis in the screen: 300 μM compound; for reduction in residual fXIa activity (inhibition) in the screen: 300 μM inhibitor
human factor XIa [2] = biological target: T1, human factor XIa; test: Dose-response inhibition of wild-type factor XIa, S-2366 hydrolysis assay; settings: for HS (Hill slope) / Y0 (minimum value of the residual activity): logistic fit eq 1; for Y0 (minimum value of the residual activity): residual activity Y in %; for improvement in potency over the best sulfated QAO designed earlier: comparison with earlier studies
factor XIa = test: Competitive inhibition studies using unfractionated heparin as a competitor; assay type: biochemical, human; settings: UFH 0 to 16 μM; 50 mM Tris-HCl pH 7.4, 37 °C
human factor XIa [3] = biological target: T1, human factor XIa; test: Michaelis-Menten kinetics of S-2366 hydrolysis in the presence of inhibitors; assay type: biochemical; settings: for VMAX: S-2366 0-1.6 mM; for mechanism of inhibition: VMAX reduced dose-dependently without significant change in KM
[4] = tested on: fluorescein-EGR factor XIa (fEGR-fXIa); assay type: binding, human; settings: bolus giving ∼33 μM in fXIa solution quenched with 0.175 M NaI

T1 sequence (P03951 19-387 limits assumed): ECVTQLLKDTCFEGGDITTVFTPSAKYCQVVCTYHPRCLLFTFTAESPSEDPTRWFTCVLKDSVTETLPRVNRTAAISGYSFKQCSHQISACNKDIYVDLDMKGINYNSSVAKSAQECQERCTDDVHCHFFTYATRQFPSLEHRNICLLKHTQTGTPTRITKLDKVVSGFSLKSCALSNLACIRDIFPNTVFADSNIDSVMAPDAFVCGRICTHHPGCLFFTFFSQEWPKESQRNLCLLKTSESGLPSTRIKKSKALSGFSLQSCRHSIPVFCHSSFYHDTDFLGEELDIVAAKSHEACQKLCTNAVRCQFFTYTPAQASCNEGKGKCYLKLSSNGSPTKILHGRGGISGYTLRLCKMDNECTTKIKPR
T1 sequence (P03951 388-625 limits assumed): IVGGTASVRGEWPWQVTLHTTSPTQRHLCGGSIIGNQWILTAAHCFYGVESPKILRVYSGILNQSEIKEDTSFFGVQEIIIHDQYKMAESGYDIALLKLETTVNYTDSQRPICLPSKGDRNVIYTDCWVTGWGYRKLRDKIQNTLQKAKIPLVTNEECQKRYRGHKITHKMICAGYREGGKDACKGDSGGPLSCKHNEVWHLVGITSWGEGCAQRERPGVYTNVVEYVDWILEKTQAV

SMILES | HS (Hill slope) (human factor XIa [2]) | Y0 (minimum value of the residual activity) (human factor XIa [2]) | other results
O=C([O-])C1Cc2cc(OS(=O)(=O)[O-])c(OS(=O)(=O)[O-])cc2CN1C(=O)c1cc(OS(=O)(=O)[O-])c(OS(=O)(=O)[O-])c(OS(=O)(=O)[O-])c1.[Na+].[Na+].[Na+].[Na+].[Na+].[Na+] (stereo not shown) [compound 37] |  |  | enhancement of fXIa catalysis in the screen (human factor XIa [1]): 20–30%
CCOC(=O)c1c(C)oc2cc(OC)c(OCc3oc4cc(OC)c(OCc5oc6cc(OC)c(OCc7oc8cc(OC)c(OS(=O)(=O)[O-])cc8c7C(=O)OCC)cc6c5C(=O)OCC)cc4c3C(=O)OCC)cc12.[Na+] [compound 32] | 1.3 ± 0.2 | 0 ± 1 | 
O=C(c1cc(OS(=O)(=O)[O-])cc(OS(=O)(=O)[O-])c1)N1CCc2cc(OS(=O)(=O)[O-])c(OS(=O)(=O)[O-])cc2C1.[Na+].[Na+].[Na+].[Na+] [compound 33] |  |  | enhancement of fXIa catalysis in the screen (human factor XIa [1]): 20–30%
O=C(c1cc(OS(=O)(=O)[O-])c(OS(=O)(=O)[O-])c(OS(=O)(=O)[O-])c1)N1CCc2cc(OS(=O)(=O)[O-])c(OS(=O)(=O)[O-])cc2C1.[Na+].[Na+].[Na+].[Na+].[Na+] [compound 36] |  |  | enhancement of fXIa catalysis in the screen (human factor XIa [1]): 20–30%
CCOC(=O)c1c(C)oc2cc(OC)c(OCc3oc4cc(OC)c(OCc5oc6cc(OS(=O)(=O)[O-])c(OC)cc6c5C(=O)OCC)cc4c3C(=O)OCC)cc12.[Na+] [compound 31] |  |  | reduction in residual fXIa activity (inhibition) in the screen (human factor XIa [1]): did not inhibit fXIa
CCOC(=O)c1c(C)oc2cc(OCc3oc4cc(OC)c(OS(=O)(=O)[O-])cc4c3C(=O)OCC)c(OC)cc12.[Na+] [compound 22] |  |  | reduction in residual fXIa activity (inhibition) in the screen (human factor XIa [1]): did not inhibit fXIa
CCOC(=O)c1c(C)oc2cc(OC)c(OCc3oc4cc(OC)c(OCc5oc6cc(OCC)c(OS(=O)(=O)[O-])cc6c5C(=O)OCC)cc4c3C(=O)OCC)cc12.[Na+] [compound 24] | 3.8 ± 0.3 | 0 ± 1 | change in IC50 in the presence of UFH (factor XIa): no significant change; nature of the interaction with fXIa (recovery of fluorescence after bolus) [4]: fully reversible; VMAX (human factor XIa [3]; 24 at 150 nM, fXIa 0.765 nM): 57.1 ± 1.8 mAU/min; VMAX (human factor XIa [3]; 24 at 300 nM, fXIa 0.765 nM): 48.7 ± 1.7 mAU/min; VMAX (human factor XIa [3]; 24 at 550 nM, fXIa 0.765 nM): 34.9 ± 0.9 mAU/min; VMAX (human factor XIa [3]; 24 at 900 nM, fXIa 0.765 nM): 9.8 ± 0.5 mAU/min; mechanism of inhibition (human factor XIa [3]): noncompetitive inhibition; improvement in potency over the best sulfated QAO designed earlier (human factor XIa [2]): ~50 fold
CCOC(=O)c1c(C)oc2cc(OC)c(OCc3oc4cc(OC)c(OCc5oc6cc(OC)c(OS(=O)(=O)[O-])cc6c5C(=O)OC)cc4c3C(=O)OCC)cc12.[Na+] [compound 23] | 5.2 ± 0.4 | 7 ± 1 | 
CCOC(=O)c1c(C)oc2cc(OC)c(OCc3oc4cc(OC)c(OCc5oc6cc(OC)c(OS(=O)(=O)[O-])cc6c5C(=O)OCC)cc4c3C(=O)OCC)cc12.[Na+] [compound 27] | 11.7 ± 1.5 | 2 ± 1 | 
CCOC(=O)C1Cc2cc(OS(=O)(=O)[O-])c(OS(=O)(=O)[O-])cc2CN1C(=O)c1ccc(OS(=O)(=O)[O-])c(OS(=O)(=O)[O-])c1.[Na+].[Na+].[Na+].[Na+] (stereo not shown) [compound 35] |  |  | enhancement of fXIa catalysis in the screen (human factor XIa [1]): 20–30%
CCOC(=O)c1c(C)oc2cc(OC)c(OCc3oc4cc(OC)c(OCc5oc6cc(OC(C)C)c(OS(=O)(=O)[O-])cc6c5C(=O)OCC)cc4c3C(=O)OCC)cc12.[Na+] [compound 25] | 6.6 ± 0.8 | 3 ± 2 | 
C=CCOC(=O)c1c(C)oc2cc(OC)c(OCc3oc4cc(OC)c(OCc5oc6cc(OC)c(OS(=O)(=O)[O-])cc6c5C(=O)OCC)cc4c3C(=O)OCC)cc12.[Na+] [compound 28] | 6.4 ± 0.9 | 10 ± 2 | 
CCOC(=O)c1c(COc2cc3c(C(=O)OCC)c(COc4cc5c(C(=O)O)c(C)oc5cc4OC)oc3cc2OC)oc2cc(OC)c(O)cc12 [compound 29] | 1.9 ± 0.4 | 0 ± 1 | loss in activity from sulfated analogue 30 (human factor XIa [2]; IC50 ratio 29 vs 30): ~13 fold

Continued, in another order:

HS (Hill slope) (human factor XIa [2]) | Y0 (minimum value of the residual activity) (human factor XIa [2]) | SMILES | other results
1.9 ± 0.3 | 0 ± 2 | CCOC(=O)c1c(C)oc2cc(OC)c(OCc3oc4cc(OCC)c(OS(=O)(=O)[O-])cc4c3C(=O)OCC)cc12.[Na+] [compound 21] | change in IC50 in the presence of UFH (factor XIa): no significant change; VMAX (human factor XIa [3]; 21 at 5 μM, fXIa 0.365 nM): 37.4 ± 1.4 mAU/min; VMAX (human factor XIa [3]; 21 at 7.25 μM, fXIa 0.365 nM): 30.7 ± 0.6 mAU/min; VMAX (human factor XIa [3]; 21 at 10 μM, fXIa 0.365 nM): 20.3 ± 1.2 mAU/min; mechanism of inhibition (human factor XIa [3]): noncompetitive inhibition; improvement in potency over the best sulfated QAO designed earlier (human factor XIa [2]): 10 fold
6.9 ± 0.7 | 3 ± 2 | CCOC(=O)c1c(COc2cc3c(C(=O)O)c(C)oc3cc2OC)oc2cc(OC)c(OCc3oc4cc(OC)c(OS(=O)(=O)[O-])cc4c3C(=O)OCC)cc12.[Na+] [compound 30] | less potent than 3-carboxyethyl ester analogue 27 (human factor XIa [2]; IC50 ratio 30 vs 27): 4.7 fold
6.0 ± 0.9 | 0 ± 1 | O=C(Nc1ccc(OS(=O)(=O)[O-])cc1)c1cccc(N2C(=O)c3ccc(C(=O)Nc4ccc(OS(=O)(=O)[O-])cc4)cc3C2=O)c1.[Na+].[Na+] [compound 63] | 
6.9 ± 1.2 | 4 ± 4 | COC(=O)c1c(C)oc2cc(OC)c(OCc3oc4cc(OC)c(OS(=O)(=O)[O-])cc4c3C(=O)OC)cc12.[Na+] [compound 15] | 
6.2 ± 0.5 | 0 ± 1 | N#Cc1c(SCC(=O)c2cccc(OS(=O)(=O)[O-])c2OS(=O)(=O)[O-])nc([N+](=O)[O-])c(C#N)c1-c1ccc(Oc2ccccc2)cc1.[Na+].[Na+] [compound 61] | 

Reference: publication PMC4317055 (Journal of Medicinal Chemistry, 2014)
